Results on 27 compounds are retold here after patent US5169863A, “Hypersphyxia-causing methods” (K.K. Ueno Seiyaku Oyo Kenkyujo, priority 1988, dated 1992).

Test [1] in a line: changing rate of blood pressure and heart rate by intravenous injection in anesthetized rats. Format: in vivo, Wister male rats. Conditions: for changing rate (%) of blood pressure / changing rate (%) of heart rate: Table 2; for change in vivo at 1 mg/kg: Rattus norvegicus. On the procedure: (blood pressure, heart rate increasing action by intravenous injection) Wister male rats (8 weeks old) were used as test animals. The rats were applied to anesthesia by intraperitoneal administration with 1.25 g/kg of urethane. The blood pressure was determined by inserting a polyethylene tube into a femoral artery, which was connected with a pressure transducer. The heart rate was determined from R wave of electrocardiograms (ECG) induced by standard limb lead II with a tachometer. Each test compound was dissolved in ethanol and intravenously administered to rats in 1 mg/kg diluted with Ringer's solution just before use. The maximum concentration of ethanol was 2 percent. An ethanol-containing Ringer without any test compound was used as a control to confirm the influence of the ethanol in each experiment. Each changing rate (%) in the blood pressure and heart rate before and after administration was determined, and the average of 3-4 experiments was shown in Table 1. Changing rates of blood pressure and heart rate were determined in the same manner as described in Example 1 except that the test compounds 60, 61 and 62 were used in different concentrations instead of the test compounds 1-55.

Test [2] in a line: progressing a breath (change rate of breath rate). Conditions: tail vein, rats; for change in vivo at 1 mg/kg: Rattus norvegicus, iv. Type of test: in vivo, Wister male rats. On the procedure:
Wister male rats (8 weeks old) were applied to anesthesia by intraperitoneal administration with 1.25 g/kg of urethane. A pick-up for breath was fixed on a top of a rat's nose, and the breath curve was recorded on a polygraph while the breath rate was counted with a tachometer.
Each test compound was dissolved in ethanol and administered to rats through a tale vein in 1 mg/kg as diluted with Ringer's solution just before use. The maximum concentration of ethanol was 2 percent. Ringers solution containing ethanol but not containing test compound was administered at every experiment as a control. The change rates (%) of the breath rate before and after administration were determined, and evaluated as progressing activity of breath.

Where [3] appears, read: 1 (mg/kg), Table 1, read-out: changing rate of blood pressure.
Where [4] appears, read: 1 (mg/kg), Table 1, read-out: changing rate of heart rate.

`CCCCC(F)(F)C(=O)CC[C@H]1[C@H](O)CC(=O)[C@@H]1C/C=C\CCCC(=O)OC` [Compound 61, 13,14-dihydro-15-keto-16,16-difluoro-PGE2 methyl ester]: the entries for the “changing rate (%) of blood pressure” value in test [1] (0.01 mg/kg), in test [1] (0.1 mg/kg) and in test [1] (1 mg/kg) were “+13%”, “+15%” and “+27%”, respectively. Further, the results for the “changing rate (%) of heart rate” value in test [1] (0.01 mg/kg), in test [1] (0.1 mg/kg) and in test [1] (1 mg/kg) were “+14%”, “+30%” and “+26%”, respectively.

As to `CCCCC(F)C(=O)CC[C@H]1[C@H](O)CC(=O)[C@@H]1C/C=C\CCCC(=O)OCC` (some centres unmarked) [Compound 38, 13,14-dihydro-15-keto-16R,S-fluoro-PGE2 ethyl ester], the change in vivo at 1 mg/kg in test [1] (setting [3]) stood at 14%; in test [1] (setting [4]), 15%; in test [2], 47%.

Consider `CCCCC[C@H](O)/C=C/[C@H]1[C@H](O)CC(=O)[C@@H]1CCCCCCC(=O)O` [Compound 56, PGE1, reference compound], for which the change in vivo at 1 mg/kg in test [1] (setting [3]) was -54%; in test [1] (setting [4]) it was 10%.

On to `CCCCC(F)C(=O)/C=C/[C@H]1[C@H](O)CC(=O)[C@@H]1C/C=C\CCCC(=O)OC` (some centres unmarked) [Compound 55, 15-keto-16R,S-fluoro-PGE2 methyl ester], for which the change in vivo at 1 mg/kg in test [1] (setting [3]) is 31%; in test [1] (setting [4]) it was 58%.

On to `CCCCC(C)C(=O)CC[C@H]1[C@H](O)CC(=O)[C@@H]1C/C=C\CCCC(=O)OC` (some centres unmarked) [Compound 30, 13,14-dihydro-15-keto-16R,S-methyl-PGE2 methyl ester], for which the change in vivo at 1 mg/kg in test [1] (setting [3]) came to 14%; in test [1] (setting [4]) it was 29%; in test [2], 61%.

In the case of `CCCCCC(=O)CC[C@H]1[C@H](O)CC(=O)[C@@H]1CC(=O)CCCCC(=O)OCC` (relative stereo) [Compound 8, (±) 13,14-dihydro-6,15-diketo-PGE1 ethyl ester], the change in vivo at 1 mg/kg in test [1] (setting [3]) was 8%; in test [2], 65%.

Regarding `CCCCC(C)C(=O)CC[C@H]1[C@H](O)CC(=O)[C@@H]1CC(=O)CCCCC(=O)OC` (some centres unmarked) [Compound 10, 13,14-dihydro-6,15-diketo-16R,S-methyl-PGE1 methyl ester], the change in vivo at 1 mg/kg in test [1] (setting [3]) was 22%; in test [1] (setting [4]), 37%; in test [2] it was 63%.

Take `COC(=O)CCCCC(=O)C[C@H]1C(=O)C[C@@H](CO)[C@@H]1CCC(=O)CCCC(C)C` [Compound 16, 13,14-dihydro-6,15-diketo-11-dehydroxy-11R-hydroxymethyl-19-methyl-PGE1 methyl ester]: the change in vivo at 1 mg/kg was 26% in test [1] (setting [3]) and 25% in test [1] (setting [4]).

With `CCOC(=O)CCCCC(=O)C[C@H]1C(=O)C[C@@H](O)[C@@H]1CCC(=O)CCC(C)CC` (some centres unmarked) [Compound 62, 13,14-dihydro-6,15-diketo-18-methyl-PGE1 ethyl ester], the “changing rate (%) of heart rate” value in test [1] (0.1 mg/kg) is reported as “+6%”; in test [1] (1 mg/kg), “+13%”.

Consider `CCCCCCCC(=O)CC[C@H]1[C@H](C)CC(=O)[C@@H]1C/C=C\CCCC(=O)OC` [Compound 53, 13,14-dihydro-15-keto-20-ethyl-11-dehydroxy-11R-methyl-PGE2 methyl ester], for which the figures for the change in vivo at 1 mg/kg in test [1] (setting [3]) and in test [1] (setting [4]) were 17% and 20%, respectively.

Turning to `CCCCCC(=O)CC[C@H]1[C@H](O)CC(=O)[C@@H]1CCCCCCC(=O)O` [Compound 1, 13,14-dihydro-15-keto-PGE1, reference compound], the change in vivo at 1 mg/kg was -6% in test [1] (setting [3]), 6% in test [1] (setting [4]) and 34% in test [2].

Turning to `CCCCCC(=O)CC[C@H]1[C@H](O)CC(=O)[C@@H]1CC(=O)CCCCC(=O)OCCCC` [Compound 9, 13,14-dihydro-6,15-diketo-PGE1 n-butyl ester], the change in vivo at 1 mg/kg was determined as 2% in test [1] (setting [3]), 26% in test [1] (setting [4]) and 26% in test [2].

In the case of `CCCCC(C)C(=O)CC[C@H]1[C@H](O)CC(=O)[C@@H]1C/C=C\CC(C)CC(=O)OC` (some centres unmarked) [Compound 32, 13,14-dihydro-15-keto-3R,S-16R,S-dimethyl-PGE2 methyl ester], the change in vivo at 1 mg/kg amounted to 14% in test [1] (setting [3]), 30% in test [1] (setting [4]) and 41% in test [2].

As to `CCCCC(C)C(=O)CC[C@H]1[C@H](O)CC(=O)[C@@H]1CC(=O)CCCCC(=O)OCC` (some centres unmarked) [Compound 11, 13,14-dihydro-6,15-diketo-16R,S-methyl-PGE1 ethyl ester], the change in vivo at 1 mg/kg came out at 23% in test [1] (setting [3]), 18% in test [1] (setting [4]) and 34% in test [2].

In the case of `COCCCCCC(=O)CC[C@H]1[C@H](O)CC(=O)[C@@H]1C/C=C\CC=CC(=O)OC` [Compound 46, 13,14-dihydro-15-keto-20-methoxy-Δ^2 -PGE2 methyl ester], the change in vivo at 1 mg/kg in test [1] (setting [3]) was 5%; in test [1] (setting [4]), 13%; in test [2], 10%.

As for `CCCCCC(F)C(=O)CC[C@H]1[C@H](O)CC(=O)[C@@H]1C/C=C\CCCC(=O)OC` (some centres unmarked) [Compound 39, 13,14-dihydro-15-keto-16R,S-fluoro-20-methylPGE2 methyl ester], the change in vivo at 1 mg/kg was 20% in test [1] (setting [3]) and 47% in test [1] (setting [4]).

On to `CCCCCCCC(=O)CC[C@H]1[C@H](O)CC(=O)[C@@H]1CCCCCCC(=O)OC` [Compound 4, 13,14-dihydro-15-keto-20-ethyl-PGE1 methy ester], for which the values for the change in vivo at 1 mg/kg in test [1] (setting [3]), in test [1] (setting [4]) and in test [2] were 6%, 33% and 48%, respectively.

Consider `CCCCCC(=O)CC[C@H]1[C@H](O)CC(=O)[C@@H]1C/C=C\CCCC(=O)OCCO` [Compound 26, 13,14-dihydro-15-keto-PGE2 hydroxyethyl ester], for which the “changing rate of blood pressure” value is reported as 0% in test [1] (0.2, Table 1); 0% in test [1] (0.5, Table 1); “+2%” in test [1] (1 (mg/kg), Table 1). Besides, the “changing rate of heart rate” value in test [1] (0.2, Table 1) is listed as 0%; in test [1] (0.5, Table 1), 0%; in test [1] (1 (mg/kg), Table 1), “+7%”. In addition, the “progressing activity % of breath” value in test [2] (1 mg/kg) is recorded as “+22%”.

Take `COCCCCC(C)(C)C(=O)CC[C@H]1[C@H](O)CC(=O)[C@@H]1C/C=C\CCCC(=O)OC` [Compound 48, 13,14-dihydro-15-keto-16,16-dimethyl-20-methoxy-PGE2 methyl ester]: the change in vivo at 1 mg/kg is 15% in test [1] (setting [3]) and 30% in test [1] (setting [4]).

As for `CCCCC[C@H](O)/C=C/[C@H]1[C@H](O)CC(=O)[C@@H]1C/C=C\CCCC(=O)O` [Compound 57, PGE2, reference compound], the “blood pressure effect (in words)” value in test [1] (Example 1 conclusion) is given as “blood pressure decreasing effect”. Besides, the change in vivo at 1 mg/kg in test [1] (setting [3]) is -39%; in test [1] (setting [4]), 14%; in test [2], 55%.

`CCCCCC(=O)CC[C@H]1[C@H](O)CC(=O)[C@@H]1CC(=O)CCCCC(=O)O` [Compound 5, 13,14-dihydro-6,15-diketo-PGE1, reference compound]: the change in vivo at 1 mg/kg in test [1] (setting [3]) was -4%; in test [1] (setting [4]), 0%; in test [2] it was 4%.

Regarding `CCCCCCCC(=O)CC[C@H]1[C@H](O)CC(=O)[C@@H]1C/C=C\CCCC(=O)OCC` [Compound 52, 13,14-dihydro-15-keto-20-ethyl-PGE2 ethyl ester], the change in vivo at 1 mg/kg in test [1] (setting [3]) worked out at 13%; in test [1] (setting [4]), 0%.

In the case of `CCCCCC(=O)CC[C@H]1[C@H](C)CC(=O)[C@@H]1CC(=O)CCCCC(=O)OC` [Compound 17, 13,14-dihydro-6,15-diketo-11-dehydroxy-11R-methyl-PGE1 methyl ester], the change in vivo at 1 mg/kg amounted to 46% in test [1] (setting [3]) and 58% in test [1] (setting [4]).

As for `CCCCCCCCC(=O)CC[C@H]1[C@H](O)CC(=O)[C@@H]1C/C=C\CCCC(=O)OC` [Compound 54, 13,14-dihydro-15-keto-20-n-propyl-PGE2 methyl ester], the change in vivo at 1 mg/kg in test [1] (setting [3]) and in test [1] (setting [4]) was 18% each time.

As for `CCCCC(F)C(=O)CC[C@H]1[C@H](C)CC(=O)[C@@H]1CC(=O)CCCCC(=O)OCC` (stereo partly drawn) [Compound 19, 13,14-dihydro-6,15-diketo-16R,S-fluoro-11R-dehydroxy-11R-methyl-PGE1 ethyl ester], the change in vivo at 1 mg/kg worked out at 45% in test [1] (setting [3]) and 51% in test [1] (setting [4]).

For the compound `CCCCCC(=O)CC[C@H]1[C@H](O)CC(=O)[C@@H]1CCCCC=CC(=O)OC` [Compound 3, 13,14-dihydro-15-keto-Δ^2 -PGE1 methyl ester], the change in vivo at 1 mg/kg in test [1] (setting [3]) amounted to 32%; in test [1] (setting [4]), 43%.

Consider `CCCCCCC(=O)CC[C@H]1[C@H](O)CC(=O)[C@@H]1CCCCCCC(=O)OC` [Compound 60, 13,14-dihydro-15-keto-20-methyl-PGE1 methyl ester], for which, in test [1] (0.1 mg/kg), the “changing rate (%) of blood pressure” value was “+17%” and the “changing rate (%) of heart rate” value is “+14%”. In test [1] (1 mg/kg), the “changing rate (%) of blood pressure” value was “+13%” and the “changing rate (%) of heart rate” value was “+38%”.
